Source: patent US20030040510A1, “Selective estrogen receptor modulators in combination with estrogens” (Endorecherche, Inc., priority 2000, published 2003)
Marks after values point to notes of the source that are not given here.

Tests used:
[1] = system: ovariectomized female rats; test: Prevention of bone loss, body fat, serum cholesterol and ALP, 3-month treatment of OVX rats (Example 5A, experiment 1); type: in vivo, Sprague-Dawley rats; conditions: 3 months; for Serum ALP: OVX rats
Experimental: (§1) Ten to twelve week-old female Sprague-Dawley rats (Crl:CD(SD)Br) (Charles River Laboratory, St-Constant, Canada) weighing approximately 220-270 g at start of treatment were used. The animals were acclimatized to the environmental conditions (temperature: 22±3° C.; humidity: 50±20%; 12-h light-12-h dark cycles, lights on at 07:15 h) for at least 1 week before starting the experiments. The animals were housed individually and were allowed free access to tap water and a pelleted certified rodent feed (Lab Diet 5002, Ralston Purina, St-Louis, Mo.). Experiments were conducted in an animal facility approved by the Canadian Council on Animal Care (CCAC) and the Association for Assessment and Accreditation of Laboratory Animal Care (AAALAC) in accordance with the CCAC Guide for Care and Use of Experimental Animals.
On day 1 of the study, the animals of the appropriate groups were bilaterally ovariectomized (OVX) under isoflurane anesthesia. […] Treatments were initiated on day 2 of the study and were performed once daily during 3 months.
After 3 months (experiment 1) or 26 weeks (experiment 2) of treatment, individual rats under Isoflurane anesthesia had their whole body skeleton and lumbar spine scanned using dual energy x-ray absorptiometry (DEXA; QDR 4500A, Hologic, Waltham, Mass.) and a Regional High Resolution Scan software. The bone mineral density (BMD) of the lumbar spine (vertebrae L2 to L4) and the total body composition (fat percentage) were determined.
After 3 months (experiment 1) or 26 weeks (experiment 2) of treatment, blood samples were collected at the jugular vein from overnight fasted animals (under Isoflurane anesthesia). Samples were processed for serum preparation and frozen at −80° C. until assay. Serum cholesterol levels and alkaline phospatase activity (ALP) were determined using the Boehringer Mannheim Diagnostic Hitachi 911 Analyzer (Boehringer Mannheim Diagnostic Laboratory Systems).

[2] = system: breast and endometrial tissues; test: Antiestrogens tested for SERM function and estrogenic activity in breast and endometrium; conditions: for Estrogenic activity in breast and endometrial tissues: physiological or pharmacological concentrations
Source text: As used herein, a selective estrogen receptor modulator (SERM) is a compound that either directly or through its active metabolite functions as an estrogen receptor antagonist (“antiestrogen”) in breast tissue, yet provides estrogenic or estrogen-like effect on bone tissue and on serum cholesterol levels (i.e. by reducing serum cholesterol). Non-steroidal compounds that function as estrogen receptor antagonists in vitro or in human or rat breast tissue (especially if the compound acts as an antiestrogen on human breast cancer cells) is likely to function as a SERM. Conversely, steroidal antiestrogens tend not to function as SERMs because they tend not to display any beneficial effect on serum cholesterol. […] These SERMs may be called “pure SERMs”. […] This second series of SERMs may be called “mixed SERMs”. The unwanted estrogenic activities of these “mixed SERMs”, may be inhibited by addition of pure “SERMs” as shown in FIGS. 6 and 7 in in vitro tests and in FIG. 9 in an in vivo test of breast cancer.

[3] = system: ZR-75-1 breast tumors; test: Growth and response category of human ZR-75-1 breast tumors in OVX nude mice, 7 antiestrogens, 161 days (Example 8); type: in vivo; conditions: 161 days; for Change of ZR-75-1 tumor size compared to the OVX control group: 200 μg daily alone
Experimental: The mice (5 per cage) were housed in vinyl cages equipped with air filter lids, which were kept in laminar airflow hoods and maintained under pathogen-limiting conditions. The photoperiod was 12 hours of light and 12 hours of darkness (lights on at 07:15). Cages, bedding and food (Agway Pro-Lab R-M-H Diet #4018) were autoclaved before use. Water was autoclaved and provided ad libitum. Bilateral ovariectomy was performed under isoflurane-induced anesthesia. […] Randomization and treatments were started one week later. […] The 17 groups included two control groups (OVX and OVX+Estrone), seven groups supplemented with an estrone implant and treated with an antiestrogen and eight other groups that received an antiestrogen alone. The estrone implants were then removed from the animals in the ovariectomized control group (OVX) and in groups that were to receive the antiestrogen alone. […] Tamoxifen was purchased from […], Israel) while toremifene citrate was purchased from Orion (Espoo, Finland). […] Animals in both control groups received 0.2 ml of the vehicle alone. The antiestrogen suspensions at the appropriate concentration were prepared each month, stored at 4° C. and used under constant agitation. Powder stock were hermetically stored at 4° C. […] Tumor response was assessed at the end of the study or at death of each animal, if it occurred during the course of the experiment. In this case, only data of mice that survived for at least half of the study (84 days) were used in the tumor response analysis.

[4] = system: endometrial epithelium; test: Thickness of uterine (endometrial) epithelial cells in the mice of Example 8; type: in vivo, nude mice; conditions: for Endometrial epithelium thickness: OVX + antiestrogen 200 μg daily, no estrone, 161 days
Source text: The 17 groups included two control groups (OVX and OVX+Estrone), seven groups supplemented with an estrone implant and treated with an antiestrogen and eight other groups that received an antiestrogen alone. The estrone implants were then removed from the animals in the ovariectomized control group (OVX) and in groups that were to receive the antiestrogen alone. […] Tamoxifen was purchased from […], Israel) while toremifene citrate was purchased from Orion (Espoo, Finland). […] Animals in both control groups received 0.2 ml of the vehicle alone. The antiestrogen suspensions at the appropriate concentration were prepared each month, stored at 4° C. and used under constant agitation. Powder stock were hermetically stored at 4° C. […] After 161 days of treatment, the remaining animals were anesthetized with isoflurane and killed by exsanguination. […] The uteri were prepared to evaluate endometrial thickness by image analysis performed with Image Pro-Plus (Media Cybernetics, Maryland, USA). […] Hematoxylin- and eosin-stained sections of mice uteri were analysed. […] Mean epithelial cell height was measured in all animals of each group.

[5] = system: ovariectomized rats supplemented with 17β-estradiol; test: EM-652.HCl with oral 17β-estradiol for 2 weeks in OVX rats: uterus, endometrial epithelium, vagina, serum cholesterol (Example 10); type: in vivo, Sprague-Dawley rats
Experimental: Ten to twelve week-old female Sprague-Dawley rats (Crl:CD(SD)Br) (Charles River Laboratory, St-Constant, Canada) weighing 215-265 g at time of ovariectomy were used. The animals were housed individually in an environmentally-controlled room (temperature: 22±3° C.; humidity: 50±20%; 12-h light-12-h dark cycles, lights on at 07:15 h). The animals were allowed free access to tap water and a certified rodent feed (Lab Diet 5002 (pellet), Ralston Purina, St-Louis, Mo.). The experiment was conducted in an animal facility approved by the Canadian Council on Animal Care (CCAC) and the Association for Assessment and Accreditation of Laboratory Animal Care (AAALAC) in accordance with the CCAC Guide for Care and Use of Experimental Animals.
On the first day of the study, the animals of the appropriate groups were bilaterally ovariectomized (OVX) under isoflurane anesthesia. The tested compounds were then given once daily by oral gavage as a suspension in 0.4% methylcellulose (0.5 ml/rat) from day 1 to day 14 of the study. Animals of groups 1 and 2 received the vehicle alone during the same time period. On day 15 of the study, 4 animals per group were perfused with 10% buffered formalin and tissues were processed for histological examination. The other animals were killed by exsanguination at the abdominal aorta under isoflurane anesthesia. The uterus and vagina were removed, stripped of remaining fat and weighed. A specimen from each uterus was fixed in 10% buffered formalin for determination of the height of endometrial epithelial cells using a computerized-assisted program (Software Image-Pro Plus).
Total cholesterol was measured on serum samples collected from overnight fasted animals using a Boehringer Mannheim Diagnostic Hitachi 911 Analyzer (Boehringer Mannheim Diagnostic Laboratory Systems).

[6] = system: OVX rats having established osteopenia; test: Treatment of OVX rats having established osteopenia, 26 weeks (Example 5B): BMD, total body fat; type: in vivo, Sprague-Dawley rats; conditions: treatment started 10 weeks after OVX, 26 weeks daily
Experimental: as §1, with “Height” for “Ten”, “nine month-old” for “twelve week-old”, “Canada)” for “Canada) weighing approximately 220-270 g at start of treatment”, “used in this experiment.” for “used.”, “prior to” for “before starting”, “ovariectomy. Animals were bilaterally ovariectomized (OVX) under isoflurane anesthesia. Twenty animals were kept intact as control.” for “experiments.”
Treatments were initiated 10 weeks after the ovariectomy and were performed once daily during 26 weeks. Animals not receiving a test article were treated with the appropriate vehicle alone during the same period.
Prior to the OVX, prior to the first day treatment (10 weeks after OVX) and after 26 weeks of treatment, individual rats under Isoflurane anesthesia had their whole body skeleton, lumbar spine and right femur scanned using dual energy x-ray absorptiometry (DEXA; QDR 4500A, Hologic, Waltham, Mass.) and a Regional High Resolution Scan software. The bone mineral density (BMD) of the lumbar spine (vertebrae L2 to L4), femur and the total body composition (fat percentage) were determined.

[7] = system: ovariectomized rats; test: 5-diol alone or with Flutamide and/or EM-800 for 12 months in ovariectomized rats (bone mass, serum markers)
[8] = system: uterus and vagina of ovariectomized mice; test: Uterine and vaginal weight in ovariectomized mice treated or not with estrone (9 days oral); type: in vivo, BALB/c mice
Experimental: (St-Constant, Quebec, Canada) and housed 5 per cage in a temperature (23±1° C.)—and light (12 h light/day, lights on at 7:15)—controlled environment. The mice were fed rodent chow and tap water ad libitum. […] Ten mice were kept intact as controls. […] Compounds were dissolved in ethanol (4% final concentration) and administered in 0.4% methylcellulose. Mice in the intact and OVX control groups received the vehicle alone (4% ETOH-0.4% methylcellulose) during the 9-day period. The animals were killed by exsanguination at the abdominal aorta on the 11th morning following ovariectomy.

[9] = 10 μg alone, absence of estrone, OVX mice

CC/C(=C(\c1ccccc1)c1ccc(/C=C/C(=O)O)cc1)c1ccccc1 [GW 5638]
Serum ALP [1]: 72 ± 6 IU/L
OVX-induced increase on serum cholesterol levels ([1]; alone or in combination with E2): completely prevented
Function as SERM [2]: found to function as SERMs
Estrogenic activity in breast and endometrial tissues [2]: have some estrogenic activities
Progressing tumors ([3]; 50 μg daily + estrone): 77%
Change of ZR-75-1 tumor size compared to the OVX control group ([3]; absence of estrone): did not significantly change
Endometrial epithelium thickness [4]: 22.22^a ± 0.05 μm

C[C@]12CC[C@@H]3c4ccc(O)cc4CC[C@H]3[C@@H]1CC[C@@H]2O [E2, 17β-estradiol, reference compound]
Endometrial epithelial height ([5]; OVX + E2 2 mg/kg): 41.9±1.2 μm
Endometrial epithelial height higher than in intact control animals ([5]; OVX + E2 2 mg/kg): 34.7%
Inhibition of serum cholesterol levels ([5]; OVX + E2 2 mg/kg): 53%
Vaginal weight ([5]; OVX + E2 2 mg/kg): 149.9 ± 9.0 mg
Uterine weight ([5]; OVX + E2 2 mg/kg oral daily, 2 weeks): 490 ± 26 mg
Serum ALP [1]: 59 ± 4 IU/L
Femoral BMD [6]: completely prevented the further decrease
Lumbar spine BMD [6]: completely prevented the further decrease
Total body fat [6]: prevented the 17% increase

CC/C(=C(\c1ccc(I)cc1)c1ccc(OCCN2CCCC2)cc1)c1ccccc1 [Idoxifene, (E)-1-[2-[4-[1-(4-Iodophenyl)-2-phenyl-1-butenyl]phenoxy]ethyl]pyrrolidine]
Function as SERM [2]: found to function as SERMs
Estrogenic activity in breast and endometrial tissues [2]: have some estrogenic activities
Progressing tumors ([3]; 50 μg daily + estrone): 71%
Progressing tumors ([3]; 200 μg daily, absence of estrone): 33%
Inhibition of the stimulatory effect of estrone on epithelial height ([4]; 50 μg daily oral + estrone): 50%

C[C@]12CC[C@H]3[C@@H](CC=C4C[C@@H](O)CC[C@@]43C)[C@@H]1CC[C@@H]2O [5-diol, androst-5-ene-3β,17β-diol]
Serum alkaline phosphatase activity ([7]; 5-diol): marked stimulation
Urinary ratio of calcium to creatinine ([7]; 5-diol): no statistically significant inhibitory effect
Reduction of serum cholesterol ([7]; highest dose of 5-diol): 23%

CC(C)C(=O)Nc1ccc([N+](=O)[O-])c(C(F)(F)F)c1 [FLU, Flutamide]
Reversal of 5-diol-stimulated serum alkaline phosphatase activity ([7]; simultaneous FLU, vs 12.5 mg 5-diol alone): 57%

CC/C(=C(/c1ccc(OCCN(C)C)cc1)c1cccc(O)c1)c1ccccc1 [Droloxifene, (E)-3-[1-[4-[2-(Dimethylamino)ethoxy]phenyl]-2-phenyl-1-butenyl]phenol]
Function as SERM [2]: found to function as SERMs
Estrogenic activity in breast and endometrial tissues [2]: have some estrogenic activities
Progressing tumors ([3]; 50 μg daily + estrone): 100%
Change of ZR-75-1 tumor size compared to the OVX control group ([3]; absence of estrone): did not significantly change
Endometrial epithelium thickness [4]: 18.50 ± 0.07 μm

Cl.O=C(c1ccc(OCCN2CCCCC2)cc1)c1c(-c2ccc(O)cc2)sc2cc(O)ccc12 [Raloxifene, [2-(4-hydroxyphenyl)-6-hydroxybenzo[b]thien-3-yl][4-[2-(1-piperidinyl)ethoxy]phenyl]-methanone hydrochloride]
Function as SERM [2]: found to function as SERMs
Estrogenic activity in breast and endometrial tissues [2]: have some estrogenic activities
Stimulation of uterine weight [8, 9]: 85%
Stimulation of vaginal weight [8, 9]: 56%
Inhibition of estrone-stimulated vaginal weight ([8]; 10 μg daily oral, 9 days, OVX mice + E1): 24%
Progressing tumors ([3]; 50 μg daily + estrone): 81%
Change of ZR-75-1 tumor size compared to the OVX control group ([3]; absence of estrone): did not significantly change
Endometrial epithelium thickness [4]: 22.33^a ± 0.05 μm
